We go through two compounds from patent US9096591B2, “Tetracyclic compounds” (Medivation Technologies, Inc., priority 2007, dated 2015).

Assay [1] addresses T1, human recombinant histamine H1 receptor (Homo sapiens, UniProt P35367).
T1 construct: expressed in transfected cells; host or cells: CHO cells
The assay can be described thus: Histamine H1 radioligand binding ([3H]Pyrilamine). The settings on record: percent inhibition of specific binding; screened at 1 μM; read-out: Inhibition of ligand binding, Hist. H1. Summed up:
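Receptor expressed in CHO cells, assayed in 50 mM Tris-HCl pH 7.4 with 2 mM MgCl2, 100 mM NaCl, 250 mM sucrose. Compounds tested at 1 μM in 1% DMSO; non-specific binding set with 1 μM pyrilamine. Filter-bound radioactivity counted; values are percent inhibition of specific binding.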

The target of assay [2] is T2, human recombinant histamine H2 receptor (Homo sapiens, UniProt P25021).
T2 construct: expressed in transfected cells; host or cells: CHO-K1 cells
T2 sequence (P25021 whole entry): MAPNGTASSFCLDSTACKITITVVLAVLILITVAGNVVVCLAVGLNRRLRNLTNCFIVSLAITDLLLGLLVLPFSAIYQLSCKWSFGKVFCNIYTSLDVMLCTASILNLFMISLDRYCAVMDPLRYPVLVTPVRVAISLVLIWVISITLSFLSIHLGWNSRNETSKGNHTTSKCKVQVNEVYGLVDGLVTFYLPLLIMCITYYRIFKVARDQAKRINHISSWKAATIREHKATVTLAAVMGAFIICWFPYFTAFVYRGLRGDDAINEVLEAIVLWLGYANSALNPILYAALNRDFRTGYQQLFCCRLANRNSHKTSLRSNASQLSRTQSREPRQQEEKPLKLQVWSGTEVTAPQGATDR
The assay can be described thus: Histamine H2 radioligand binding ([125I]Aminopotentidine). As to conditions: percent inhibition of specific binding; screened at 1 μM; read-out: Inhibition of ligand binding, Hist. H2. Summed up: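 Test compounds were assessed for their ability to displace radioligand from the human recombinant histamine H2 receptor. Non-specific binding was determined in the presence of 3 μM Tiotidine, and results were expressed as percent inhibition of specific binding, with 1% DMSO serving as the vehicle.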

Assay [3] deals with T3, human recombinant dopamine D2L receptor (Homo sapiens, UniProt P14416).
T3 construct: expressed in transfected cells; host or cells: CHO cells
T3 sequence (P14416 whole entry): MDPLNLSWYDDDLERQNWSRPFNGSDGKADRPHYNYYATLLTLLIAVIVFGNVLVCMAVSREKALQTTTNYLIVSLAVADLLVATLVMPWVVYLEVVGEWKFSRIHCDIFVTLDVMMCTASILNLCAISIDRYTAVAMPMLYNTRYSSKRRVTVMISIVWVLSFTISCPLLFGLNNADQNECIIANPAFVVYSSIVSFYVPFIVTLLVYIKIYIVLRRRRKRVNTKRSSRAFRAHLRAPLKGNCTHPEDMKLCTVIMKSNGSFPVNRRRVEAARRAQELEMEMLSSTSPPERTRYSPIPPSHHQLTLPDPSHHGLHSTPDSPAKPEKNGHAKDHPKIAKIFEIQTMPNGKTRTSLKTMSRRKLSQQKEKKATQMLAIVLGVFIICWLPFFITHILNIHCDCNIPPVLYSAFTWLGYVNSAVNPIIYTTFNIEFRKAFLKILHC
The assay can be described thus: Dopamine D2L radioligand binding ([3H]Spiperone). As to conditions: percent inhibition of specific binding. The protocol:
Non-specific binding was estimated in the presence of 10 μM Haloperidol. Receptor proteins were filtered and washed, the filters were then counted to determine [^3H]Spiperone specifically bound. […] Biochemical assay results are presented as the percent inhibition of specific binding in Table 6.

For assay [4], the target named is T4, human recombinant adrenergic α2B receptor (Homo sapiens, UniProt P18089).
T4 construct: expressed in transfected cells; host or cells: CHO-K1 cells
T4 sequence (P18089 1-450): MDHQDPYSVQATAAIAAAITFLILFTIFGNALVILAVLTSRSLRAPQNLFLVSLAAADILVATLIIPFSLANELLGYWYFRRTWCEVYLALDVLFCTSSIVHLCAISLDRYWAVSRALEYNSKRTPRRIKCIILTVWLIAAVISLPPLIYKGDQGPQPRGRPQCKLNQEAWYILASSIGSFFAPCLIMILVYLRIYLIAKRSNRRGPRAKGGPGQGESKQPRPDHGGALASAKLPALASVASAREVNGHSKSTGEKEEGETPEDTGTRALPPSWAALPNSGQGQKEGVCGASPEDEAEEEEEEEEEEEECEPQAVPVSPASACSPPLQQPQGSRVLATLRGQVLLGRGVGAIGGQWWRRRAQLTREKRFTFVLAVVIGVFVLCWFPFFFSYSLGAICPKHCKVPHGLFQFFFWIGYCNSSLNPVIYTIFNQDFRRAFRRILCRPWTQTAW
The assay can be described thus: Adrenergic α2B radioligand binding ([3H]Rauwolscine). As to conditions: percent inhibition of specific binding. Further details: Inhibition of ligand binding, Adren. alpha2B: concentration or dose not given beside the values. Summed up: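 Membranes from CHO-K1 cells expressing the receptor, in 50 mM Tris-HCl pH 7.4 with 12.5 mM MgCl2, 1 mM EDTA, 0.2% BSA, incubated with compounds and 2.5 nM [3H]Rauwolscine for 60 minutes at 25 °C.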

The target in assay [5] is T5, human recombinant adrenergic α1D receptor (Homo sapiens, UniProt P25100).
T5 construct: expressed in transfected cells; host or cells: HEK-293 cells
T5 sequence (P25100 1-572): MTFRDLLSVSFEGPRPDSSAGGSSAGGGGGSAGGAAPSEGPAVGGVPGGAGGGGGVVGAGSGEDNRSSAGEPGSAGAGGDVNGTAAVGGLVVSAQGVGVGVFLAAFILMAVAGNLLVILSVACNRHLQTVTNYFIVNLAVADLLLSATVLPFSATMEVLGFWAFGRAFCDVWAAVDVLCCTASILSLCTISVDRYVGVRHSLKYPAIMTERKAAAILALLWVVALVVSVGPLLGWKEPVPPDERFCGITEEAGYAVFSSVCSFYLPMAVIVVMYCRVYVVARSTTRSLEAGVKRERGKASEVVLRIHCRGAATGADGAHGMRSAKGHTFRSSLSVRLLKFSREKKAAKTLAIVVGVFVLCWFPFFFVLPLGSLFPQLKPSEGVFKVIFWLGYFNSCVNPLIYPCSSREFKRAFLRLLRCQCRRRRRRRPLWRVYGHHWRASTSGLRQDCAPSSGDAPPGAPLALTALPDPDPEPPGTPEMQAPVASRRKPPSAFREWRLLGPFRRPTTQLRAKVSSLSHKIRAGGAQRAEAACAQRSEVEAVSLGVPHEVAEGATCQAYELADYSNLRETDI
The experiment in a line: Adrenergic α1D radioligand binding ([3H]Prozosin). The settings on record: percent inhibition of specific binding. The arrangement: Inhibition of ligand binding, Adren. alpha1D: concentration or dose not given beside the values. The protocol: Compounds of invention were incubated with 0.6 nM [^3H]Prozosin for 60 minutes at 25° C. Non-specific binding was estimated in the presence of 10 μM phentolamine. Receptor proteins were filtered and washed, the filters were then counted to determine [^3H]Prozosin specifically bound. […] Biochemical assay results are presented as the percent inhibition of specific binding in Table 6.

Assay [6] deals with T6, human recombinant serotonin (5-Hydroxytryptamine) 5-HT2A receptor (Homo sapiens, UniProt P28223).
T6 construct: expressed in transfected cells; host or cells: CHO-K1 cells
T6 sequence (P28223 whole entry): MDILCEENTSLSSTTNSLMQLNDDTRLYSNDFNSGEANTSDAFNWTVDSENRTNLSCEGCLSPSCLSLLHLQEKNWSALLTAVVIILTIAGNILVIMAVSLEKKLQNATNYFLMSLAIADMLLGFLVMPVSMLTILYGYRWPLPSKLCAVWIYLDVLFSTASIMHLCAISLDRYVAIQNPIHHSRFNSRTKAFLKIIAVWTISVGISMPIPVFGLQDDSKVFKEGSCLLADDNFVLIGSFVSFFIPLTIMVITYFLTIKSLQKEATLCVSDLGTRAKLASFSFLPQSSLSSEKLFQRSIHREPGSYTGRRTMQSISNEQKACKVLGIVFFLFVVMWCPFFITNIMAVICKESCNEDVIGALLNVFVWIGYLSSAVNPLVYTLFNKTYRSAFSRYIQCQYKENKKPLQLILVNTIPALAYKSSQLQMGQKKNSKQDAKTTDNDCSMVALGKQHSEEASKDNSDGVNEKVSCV
The experiment in a line: Serotonin 5-HT2A radioligand binding ([3H]Ketanserin). As to conditions: percent inhibition of specific binding. The protocol: Compounds of the invention were incubated with 0.5 nM [^3H]Ketanserin for 60 minutes at 25° C. Non-specific binding was estimated in the presence of 1 μM Mianserin. Receptor proteins were filtered and washed, the filters were then counted to determine [^3H]Ketanserin specifically bound. […] Biochemical assay results are presented as the percent inhibition of specific binding in Table 6.

Each structure is given as a SMILES string.

T1 sequence (P35367 whole entry): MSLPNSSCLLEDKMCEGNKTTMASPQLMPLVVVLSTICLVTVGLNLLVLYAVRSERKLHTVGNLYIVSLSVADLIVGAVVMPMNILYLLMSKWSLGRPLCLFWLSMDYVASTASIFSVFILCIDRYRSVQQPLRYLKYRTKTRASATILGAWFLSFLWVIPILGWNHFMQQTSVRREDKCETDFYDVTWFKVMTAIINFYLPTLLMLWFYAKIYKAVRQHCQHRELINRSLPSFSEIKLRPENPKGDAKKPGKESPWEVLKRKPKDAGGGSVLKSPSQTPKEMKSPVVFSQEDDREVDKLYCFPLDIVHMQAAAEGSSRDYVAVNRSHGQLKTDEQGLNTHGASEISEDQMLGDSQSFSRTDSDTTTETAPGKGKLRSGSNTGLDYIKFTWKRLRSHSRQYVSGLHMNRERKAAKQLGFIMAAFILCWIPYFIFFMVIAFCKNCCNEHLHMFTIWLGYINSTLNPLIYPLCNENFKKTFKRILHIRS

As to `Cc1ccc2c(c1)c1c(n2CCc2cccnc2)CCN(C)C1` [Compound 60], the inhibition (commonly the change of the read-out against control, counted positive when it falls) at 1 µM in assay [1] was determined as 101%; in assay [2] it was 56%. In addition, the “Inhibition of ligand binding, Dop. D2L” value in assay [3] turned out to be 24%. Also, in assay [4], the “Inhibition of ligand binding, Adren. alpha2B” value came out at 95%. Further, in assay [5], the “Inhibition of ligand binding, Adren. alpha1D” value worked out at 82%. Besides, the “Inhibition of ligand binding, Ser. 5-HT2A” value in assay [6] turned out to be 84%.
As for `Cc1ccc2c(c1)c1c(n2CC(C)c2ccc(F)cc2)CCN(C)C1` (stereo not drawn) [Compound 456, 5-(2-(4-fluorophenyl)propyl)-2,3,4,5-tetrahydro-2,8-dimethyl-1H-pyrido[4,3-b]indole], the inhibition at 1 µM is 99% in assay [1] and 98% in assay [2]. For the same compound, the “Inhibition of ligand binding, Dop. D2L” value in assay [3] is 76%. For the same compound, the “Inhibition of ligand binding, Adren. alpha2B” value in assay [4] is 110%. Also, the “Inhibition of ligand binding, Adren. alpha1D” value in assay [5] was found to be 96%. Also, the “Inhibition of ligand binding, Ser. 5-HT2A” value in assay [6] is 104%.
